# Measurements published in patent publication EP3958860B1, “COMPOUNDS EXHIBITING ANTI-TUBERCULOSIS ACTIVITY” (priority 2019, dated 2021).
# Like-named read-outs stand apart in the source and are kept apart here.
# How the values were obtained:
# [1] = tested on: Mycobacterium tuberculosis H37Rv; assay: MIC determination by MABA (Microplate Alamar Blue Assay); assay type: cell-based; settings: for MIC: Mycobacterium tuberculosis, H37RV
# Description: Following this, to determine the actual minimum inhibitory concentration in the second phase, both of the compounds were retested to the lowest concentration of Mycobacterium tuberculosis H37Rv with the technique of MABA (Microplate Alamar Blue Assay) and MIC value for the 1st compound was determined <0.03 µg/ml while this value was determined <0.05 µg/ml for the second compound. The result of Rifampicin subjected to the assay under the same conditions was determined as 0.25 µg/ml.
# [2] = In vivo animal toxicity tests (maximum tolerable dose)
# [3] = tested on: Mycobacterium avium; assay: MIC on Mycobacterium avium with BACTEC; assay type: cell-based; settings: for MIC: Mycobacterium avium, BACTEC
# [4] = assay type: physicochemical
# Description: To ensure that Compound 2 is dissolved in water, in the assays carried out with solubility enhancing cyclodextrin molecules, different cyclodextrins [hydroxypropyl beta-cyclodextrin (HP-β-CD), sulfobutyl ether beta-cyclodextrin (SBE-β-CD)], different methods [kneading, evaporation, lyophilization], different solvents (dimethyl sulfoxide, methanol, ethanol) were studied at the molar ratio of 1: 1 compound: cyclodextrin.
# [5] = assay type: physicochemical; remark: listed apart in the source
# Description: In the assays carried out with the solubility enhancing Polysorbate 80 (Tween 80) in order to ensure water solubility of Compound 2, firstly solubility of the compound was determined in an aqueous solution prepared with a mass ratio of 1:6 (compound: Tween 80) and then the same mass ratio was studied with different solvents (ethanol, methanol) and different drying methods (evaporation, evaporation+lyophilization). In light of the results of solubility obtained and presented below Table 2, it has determined that the solution of the compound that was prepared with the Tween 80 in methanol medium had the highest solubility rate after evaporation.
# Details of the method where high solubility was determined with Polysorbate 80 (Tween 80) are presented below: After the substances at the mass ratio of 1:6 (compound: Tween 80) were dissolved in 7 ml methanol, they were evaporated in a rotating evaporator at 175 RPM, at a temperature of 40°C and a vacuum of […]. The thin film obtained was firstly blended with vortex adding 3 ml water, and then was left to rest for 15 minutes in an ultrasonic bath. The mixture obtained was filtered out with a plastic filter having a pore diameter of 0.2 µm and afterward solubility ratio of the mixture was determined with HPLC.
# [6] = tested on: Mycobacterium tuberculosis H37Rv (ATCC27294); assay type: cell-based
# [7] = first value of the cell (outside parentheses), MABA, read-out: MIC H37Rv
# [8] = first value of the cell (outside parentheses), MABA
# [9] = read-out: MIC H37Rv (µg/ml), value in parentheses
# [10] = value printed in parentheses after the bound <12.5, read-out: MIC H37Rv (µg/ml), value in parentheses
Structure (SMILES),"MIC [1, 7] [µg/mL]",MIC [3] [µg/mL],"MIC [1, 10] [µg/mL]",other results
"CC(=NNc1nc(-c2cc(Cl)ccc2O)cs1)c1ccc2c(c1)CCC2 [Compound 5, 4-Chloro-2-[2-(2-(1-(2,3-dihydro-1H-inden-5-yl)ethylidene)hydrazinyl)thiazol-4-yl]phenol]",< 12.5,,,
"CO[C@H]1/C=C/O[C@@]2(C)Oc3c(C)c(O)c4c(O)c(c(/C=N/N5CCN(C)CC5)c(O)c4c3C2=O)NC(=O)/C(C)=C\C=C\[C@H](C)[C@H](O)[C@@H](C)[C@@H](O)[C@@H](C)[C@H](OC(C)=O)[C@@H]1C [Rifampicin, reference compound]",0.25,,,
"COc1ccc(-c2csc(NN=C(C)c3ccc4c(c3)CCC4)n2)c(O)c1 [Compound 8, 2-[2-(2-(1-(2,3-Dihydro-1H-inden-5-yl)ethylidene)hydrazinyl)thiazol-4-yl]-5-methoxyphenol]",< 12.5,,,
"CC(=NNC(N)=S)c1ccc2c(c1)CCC2 [Compound 1, 2-[1-(2,3-dihydro-1H-inden-5-yl)ethylidene]hydrazinecarbothioamide]",< 0.03,,,"MIC H37Rv [1, 8]: <0.03 µg/mL; maximum tolerable dose [2]: 1000 mg/kg"
"CC(=NNc1nc(-c2ccccc2)cs1)c1ccc2c(c1)CCC2 [Compound 11, 2-[2-(1-(2,3-Dihydro-1H-inden-5-yl)ethylidene)hydrazinyl]-4-phenylthiazole]",,12.5,,"MIC ([1]; read-out: MIC H37Rv (µg/ml)): < 12.5 µg/mL; MIC [1, 9]: 3.13 µg/mL"
"COc1ccc(O)c(-c2csc(NN=C(C)c3ccc4c(c3)CCC4)n2)c1 [Compound 2, 2-[2-(2-(1-(2,3-dihydro-1H-inden-5-yl)ethylidene)hydrazinyl)thiazole-4-yl]-4-methoxy phenol]",< 0.05,0.39,,"MIC H37Rv [1, 8]: <0.05 µg/mL; activity on Mycobacterium avium [3]: exhibited activity; increase in solubility [4]: any significant increase in solubility was not observed; dissolved in water at the ratio of ([4]; HP-β-CD, molar ratio 1:1, evaporation method within ethanol): 0.59 µg/mL; Solubility ratio in the aqueous solution [5]: Solubility ratio in the aqueous solution prepared with the mass ratio of 1:6 (compound: Tween 80) 42,44 µg/ml; The ratio of water solubility [5]: 58,80 µg/ml; The ratio of water solubility ([5]; 15 min): 70,05 µg/ml"
C/C(=N\Nc1nc(-c2ccc([N+](=O)[O-])cc2)cs1)c1ccc2c(c1)CCC2 [Compound 10],,3.13,,"Primary screening % inhibition [6]: 93%; MIC ([1]; read-out: MIC H37Rv (µg/ml)): < 12.5 µg/mL; MIC [1, 9]: 1.56 µg/mL"
"CC(=NNc1nc(-c2ccc(C)cc2O)cs1)c1ccc2c(c1)CCC2 [Compound 9, 2-[2-(2-(1-(2,3-Dihydro-1H-inden-5-yl)ethylidene)hydrazinyl)thiazol-4-yl]-5-methylphenol]",< 12.5,0.1,0.05,
"CC(=NNc1nc(-c2ccc(Br)cc2)cs1)c1ccc2c(c1)CCC2 [Compound 6, 4-(4-Bromophenyl)-2-[2-(1-(2,3-dihydro-1H-inden-5-yl)ethylidene)hydrazinyl] thiazole]",< 12.5,1.56,0.39,
"CC(=NNc1nc(-c2ccccc2O)cs1)c1ccc2c(c1)CCC2 [Compound 4, 2-[2-(2-(1-(2,3-Dihydro-1H-inden-5-yl)ethylidene)hydrazinyl)thiazol-4-yl]phenol]",< 12.5,0.78,0.2,
"CC(=NNc1nc(-c2ccc(Cl)cc2)cs1)c1ccc2c(c1)CCC2 [Compound 3, 4-(4-Chlorophenyl)-2-[2-(1-(2,3-dihydro-1H-inden-5yl)ethylidene)hydrazinyl] thiazole]",< 12.5,0.78,0.39,
C/C(=N\Nc1nc(-c2ccc(C)cc2)cs1)c1ccc2c(c1)CCC2 [Compound 7],,0.2,,"Primary screening % inhibition [6]: 94%; MIC ([1]; read-out: MIC H37Rv (µg/ml)): < 12.5 µg/mL; MIC [1, 9]: 0.2 µg/mL"
